From the supplement of paper PMC10307832

Columns and labels:
Assay in all cases: relative viability (nuclei count vs DMSO), 5 days (fraction); higher = more cells survive
[1] = compound: C1CC(C1)(C(=O)O)C(=O)O.[NH2-].[NH2-].[Pt+2] [Carboplatin] + Nc1nc2[nH]cc(CCc3ccc(C(=O)N[C@@H](CCC(=O)O)C(=O)O)cc3)c2c(=O)[nH]1 [Pemetrexed] (partner 0.2 µM)
In short: (§1)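 Lung cancer cell lines in 1536-well plates got either a single drug or a fixed anchor-drug dose together with five library-drug doses (not always all listed) in √10 steps, by pin tool, on the day after seeding. Nuclei were counted after 5 days, and relative viability is the treated-to-vehicle ratio of nuclei counts. Values are medians of duplicate plates.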

[2] = compound: NS(=O)(=O)OC[C@@H]1C[C@@H](n2ccc3c(N[C@H]4CCc5ccccc54)ncnc32)C[C@@H]1O [MLN4924] + CCNC(=O)c1noc(-c2cc(C(C)C)c(O)cc2O)c1-c1ccc(CN2CCOCC2)cc1 [Luminespib] (partner 0.01 µM)
In short: as §1

[3] = compound: CC[C@H](C)N1C=C(C2=C(C=C(C=C21)C3=CN=C(C=C3)N4CCNCC4)C(=O)NCC5=C(C=C(NC5=O)C)C)C [GSK126] + CCNC(=O)c1noc(-c2cc(C(C)C)c(O)cc2O)c1-c1ccc(CN2CCOCC2)cc1 [Luminespib] (partner 0.01 µM)
In short: as §1

[4] = compound: CC[C@H](C)N1C=C(C2=C(C=C(C=C21)C3=CN=C(C=C3)N4CCNCC4)C(=O)NCC5=C(C=C(NC5=O)C)C)C [GSK126] + CC(C)C[C@H](NC(=O)[C@H](Cc1ccccc1)NC(=O)c1cnccn1)B(O)O [Bortezomib] (partner 0.002 µM)
In short: as §1

Cell Line	relative viability ([1]; first compound 0.08 µM)	relative viability ([1]; first compound 0.253 µM)	relative viability ([1]; first compound 0.8 µM)	relative viability ([1]; first compound 2.53 µM)	relative viability ([1]; first compound 8 µM)	relative viability ([2]; first compound 0.04 µM)	relative viability ([2]; first compound 0.1265 µM)	relative viability ([2]; first compound 0.4 µM)	relative viability ([2]; first compound 1.265 µM)	relative viability ([2]; first compound 4 µM)	relative viability ([3]; first compound 0.08 µM)	relative viability ([3]; first compound 0.253 µM)	relative viability ([3]; first compound 0.8 µM)	relative viability ([3]; first compound 2.53 µM)	relative viability ([3]; first compound 8 µM)	relative viability ([4]; first compound 0.08 µM)	relative viability ([4]; first compound 0.253 µM)	relative viability ([4]; first compound 0.8 µM)	relative viability ([4]; first compound 2.53 µM)	relative viability ([4]; first compound 8 µM)
BEN	1.02	0.931	0.772	0.759	0.738	0.292	0.201	0.27	0.138	0.158	0.465	0.681	0.222	0.419	0.342	1.11	0.742	0.737	0.885	0.846
CAL-12T	1.21	1.34	1.13	1.12	1.14	0.488	0.56	0.262	0.192	0.307	0.605	0.552	0.45	0.496	0.636	0.942	1.01	0.929	1.08	1.04
COR-L23	0.188	0.202	0.192	0.193	0.198	0.67	0.569	0.42	0.174	0.139	0.752	0.702	0.614	0.637	0.608	1.08	0.979	0.942	1.01	0.992
COR-L 105	1.13	1.27	1.18	0.854	0.615	0.494	0.553	0.283	0.201	0.236	1.01	0.74	0.78	0.734	0.839	1.03	0.718	0.773	0.786	0.748
ChaGo-K-1	0.262	0.261	0.253	0.249	0.269	0.469	0.399	0.258	0.256	0.177	0.602	0.675	0.556	0.769	0.397	0.969	1.02	0.979	1.19	1.06
EKVX	0.38	0.342	0.402	0.296	0.329	0.943	0.756	0.682	0.257	0.166	0.842	0.878	0.856	0.836	0.896	1	1.07	1.08	0.992	1.06
EMC-BAC-2	0.426	0.42	0.435	0.418	0.414	0.906	0.495	0.303	0.276	0.325	1.19	1.17	1.17	1.11	1.24	1.02	1.04	1.05	1.03	1.05
EPLC-272H	0.368	0.309	0.359	0.301	0.326	0.328	0.152	0.219	0.164	0.143	0.485	0.198	0.595	0.522	0.237	1.1	0.889	0.99	0.822	0.963
H3255	0.589	0.531	0.58	0.529	0.563	0.843	0.73	0.541	0.288	0.292	0.988	0.968	0.898	0.95	1.01	0.729	0.731	0.683	0.802	0.879
HARA	0.232	0.201	0.241	0.247	0.246	0.683	0.618	0.291	0.0565	0.0527	0.787	0.679	0.688	0.895	0.813	1.15	1.14	1.09	1.11	1.05
HCC-15	0.228	0.228	0.216	0.232	0.22	0.168	0.171	0.161	0.125	0.0876	0.494	0.268	0.41	0.286	0.245	1.04	1.1	0.974	0.957	0.975
HCC-44	0.637	0.684	0.569	0.535	0.606	0.964	0.564	0.441	0.227	0.294	1.14	1.1	1	1.11	1.16	0.857	0.972	0.876	0.77	0.871
HCC-827	0.253	0.244	0.259	0.234	0.245	0.68	0.588	0.548	0.159	0.163	0.612	0.685	0.676	0.629	0.783	1.07	1.09	1.02	1.09	0.965
HOP-62	0.416	0.328	0.332	0.328	0.308	0.811	0.579	0.264	0.126	0.12	0.938	0.863	0.943	0.889	0.783	0.645	0.816	0.862	0.837	0.724
LC-2-ad	0.278	0.28	0.294	0.308	0.272	0.959	0.764	0.507	0.282	0.274	1	1.19	0.948	1.04	1.01	1.03	1.04	0.935	1.02	0.986
LCLC-97TM1	0.171	0.164	0.155	0.161	0.175	0.586	0.343	0.439	0.128	0.109	0.758	0.796	0.867	0.82	0.81	0.563	0.586	0.671	0.719	0.575

Cell Line	relative viability ([1]; first compound 0.08 µM)	relative viability ([1]; first compound 0.253 µM)	relative viability ([1]; first compound 0.8 µM)	relative viability ([1]; first compound 2.53 µM)	relative viability ([1]; first compound 8 µM)	relative viability ([2]; first compound 0.04 µM)	relative viability ([2]; first compound 0.1265 µM)	relative viability ([2]; first compound 0.4 µM)	relative viability ([2]; first compound 1.265 µM)	relative viability ([2]; first compound 4 µM)	relative viability ([3]; first compound 0.08 µM)	relative viability ([3]; first compound 0.253 µM)	relative viability ([3]; first compound 0.8 µM)	relative viability ([3]; first compound 2.53 µM)	relative viability ([3]; first compound 8 µM)	relative viability ([4]; first compound 0.08 µM)	relative viability ([4]; first compound 0.253 µM)	relative viability ([4]; first compound 0.8 µM)	relative viability ([4]; first compound 2.53 µM)	relative viability ([4]; first compound 8 µM)
LCLC-103H	0.448	0.479	0.468	0.517	0.474	0.947	0.92	0.724	0.217	0.166	1.16	0.931	0.908	1.01	0.994	1.23	0.995	0.984	1.13	1.03
LOU-NH91	0.348	0.378	0.372	0.381	0.378	0.334	0.3	0.281	0.246	0.303	0.303	0.337	0.325	0.364	0.357	0.444	0.475	0.498	0.439	0.501
LU99A	0.174	0.157	0.188	0.18	0.16	0.248	0.177	0.203	0.194	0.206	0.246	0.328	0.208	0.253	0.199	1.13	1.08	1.19	1.15	1.12
LXF-289	0.981	0.998	0.902	0.895	0.744	0.61	0.425	0.386	0.153	0.144	0.736	0.652	0.574	0.661	0.747	1.04	0.996	1	1.01	1.04
NCI-H23	0.707	0.648	0.634	0.564	0.631	0.231	0.175	0.228	0.208	0.214	0.224	0.17	0.257	0.226	0.208	1.13	0.96	0.922	1.02	0.95
NCI-H322M	0.688	0.601	0.613	0.594	0.616	1.25	1.11	0.989	0.488	0.311	0.822	0.845	0.85	0.978	0.834	1.12	1.26	1.27	1.25	1.26
NCI-H441	0.289	0.258	0.271	0.243	0.241	0.36	0.387	0.276	0.208	0.245	0.361	0.283	0.28	0.35	0.349	0.445	0.452	0.419	0.507	0.519
NCI-H460	0.0702	0.0594	0.0708	0.068	0.0641	0.0434	0.0335	0.0273	0.0208	0.0178	0.0467	0.0392	0.0346	0.0287	0.0416	1.34	1.1	1.06	1.09	1.18
NCI-H520	0.701	0.791	0.686	0.617	0.493	0.25	0.2	0.227	0.213	0.205	0.22	0.221	0.236	0.231	0.237	0.745	0.709	0.571	0.522	0.754
NCI-H596	0.533	0.473	0.548	0.464	0.475	0.942	0.933	–	0.768	0.767	1.11	0.319	0.277	0.263	0.219	1.09	0.982	–	1.14	0.731
NCI-H647	0.176	0.18	0.172	0.203	0.143	0.193	0.157	0.127	0.0558	0.0842	0.358	0.193	0.144	0.202	0.124	1.06	0.808	1.03	1.07	0.882
NCI-H650	0.935	0.97	0.947	1	0.903	0.86	0.543	0.367	0.17	0.162	0.92	0.787	0.744	0.834	0.876	0.812	0.814	0.762	0.804	0.727
NCI-H661	0.942	0.858	0.903	0.916	0.839	0.744	0.691	0.484	0.385	0.351	0.908	0.884	0.905	0.873	0.944	1	0.88	0.808	0.926	0.632
NCI-H838	0.271	0.285	0.236	0.244	0.251	0.23	0.279	0.173	0.12	0.125	0.39	0.319	0.357	0.302	0.34	0.935	0.828	0.662	0.613	0.767
NCI-H1355	1.06	1.1	1.09	1	0.892	0.636	0.684	0.775	0.366	0.208	0.783	0.753	0.777	0.881	0.806	1.27	1.33	1.11	1.17	1.19
